Measurements taken from ChEMBL document CHEMBL5725316, “Substituted imidazo[1,2-a]pyrazines as LSD1 inhibitors” (2017).

Molecular target: Lysine-specific histone demethylase 1A (Homo sapiens, UniProt O60341)
Assay: LANCE LSD1/KDM1A Demethylase Assay: 10 μL of 1 nM LSD-1 enzyme (ENZO BML-SE544-0050) in the assay buffer (50 mM Tris, pH 7.5, 0.01% Tween-20, 25 mM NaCl, 5 mM DTT) were preincubated for 1 hour at 25° C. with 0.8 μL compound/DMSO dotted in black 384 well polystyrene plates. Reactions were started by addition of 10 μL of assay buffer containing […] Biotin-labeled Histone H3 peptide substrate: ART-K(Me1)-QTARKSTGGKAPRKQLA-GGK(Biotin) SEQ ID NO:1 (AnaSpec 64355) and incubated for 1 hour at 25° C. Reactions were stopped by addition of 10 μL 1× LANCE Detection Buffer (PerkinElmer CR97-100) supplemented with 1.5 nM Eu-anti-unmodified H3K4 Antibody (PerkinElmer TRF0404), and 225 nM LANCE Ultra Streptavidin (PerkinElmer TRF102) along with 0.9 mM Tranylcypromine-HCl (Millipore 616431). After stopping the reactions plates were incubated for 30 minutes and read on a PHERAstar FS plate reader (BMG Labtech).

Which IC50 does the source give for `COC(=O)N(C)c1cc(-c2c(-c3ccc(C#N)cc3)nc(OC[C@@H]3CCCN(C)C3)c3nccn23)ccc1C` here?
Its IC50 is < 50 nM.
